According to patent US20100249243A1, “NOVEL BETA-HYDROXYKETONES AND BETA-ALKOXYKETONES WITH ESTROGENIC ACTIVITY” (priority 2007, published 2010):
Like-named read-outs stand apart in the source and are kept apart here.

Assays:
ERβ = ERβ (Homo sapiens, UniProt Q92731); assay: ERβ luciferase reporter (pERE2TATA-LUC) transactivation assay in transfected HEK293 cells; type: cell-based; set-up: expressed in transfected cells; host or cells: HEK293; settings: for Emax at 10 µM: HEK293, 24 h; for ERβ receptor activation relative to 10 nM E2 corresponding 100: Table 1, sample concentration 10 μM, mean of at least three independent transfections, SEM typically <15%; for ERβ receptor activation relative to 10 nM E2 corresponding 100 / ERβ in vitro activity (receptor activation relative to 10 nM E2): 24 hours; for ERβ in vitro activity (receptor activation relative to 10 nM E2): Table 2, previously published compounds, test compound 10 μM
Sequence of ERβ (Q92731 whole entry): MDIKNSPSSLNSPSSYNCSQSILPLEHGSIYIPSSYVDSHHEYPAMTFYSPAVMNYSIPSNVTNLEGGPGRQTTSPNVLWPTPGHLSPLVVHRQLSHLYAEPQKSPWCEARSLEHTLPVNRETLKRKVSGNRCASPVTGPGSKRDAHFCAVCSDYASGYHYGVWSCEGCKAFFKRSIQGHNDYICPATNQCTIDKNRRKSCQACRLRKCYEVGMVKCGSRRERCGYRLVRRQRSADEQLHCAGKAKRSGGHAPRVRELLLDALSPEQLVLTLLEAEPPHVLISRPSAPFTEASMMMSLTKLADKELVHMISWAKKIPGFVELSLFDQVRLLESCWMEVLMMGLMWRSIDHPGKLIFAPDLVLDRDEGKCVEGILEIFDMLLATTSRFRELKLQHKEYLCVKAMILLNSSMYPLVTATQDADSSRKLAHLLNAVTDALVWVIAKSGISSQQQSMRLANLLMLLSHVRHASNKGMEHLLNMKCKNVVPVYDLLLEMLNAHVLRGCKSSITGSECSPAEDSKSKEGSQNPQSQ
Method: (§1) All other reagents were of reagent grade from Sigma or Fluka. One day before transfection, HEK293 cells were seeded in 48-well plates (70×10^3 cells per well) in phenol-free Dulbecco's modified Eagle medium supplemented with 5% delipidated fetal bovine serum (Sigma) and antibiotics. After a medium change, the cells were transfected for 4 hours with 5 ng ERα or ERβ expression vector, 75 ng reporter plasmid pERE2TATA-LUC and 20 ng control plasmid pCMVβ by the calcium phosphate method. After transfection, the cells received fresh medium containing either vehicle (0.1% v/v) or test compound (10 μM). After 24 hours, the cells were washed, lysed and luciferase and β-galactosidase activities were determined from 20 μl of lysates with the Victor^2TM reader (PerkinElmer Wallac, Turku, Finland). […] The data are means±SEM of at least three independent transfections.

ERα = biological target: T1, ERα (Homo sapiens, UniProt P03372); assay: ERα luciferase reporter (pERE2TATA-LUC) transactivation assay in transfected HEK293 cells; type: cell-based; set-up: expressed in transfected cells; host or cells: HEK293; settings: 24 hours; for ERα receptor activation relative to 10 nM E2 corresponding 100: Table 1, sample concentration 10 μM, mean of at least three independent transfections, SEM typically <15%; for ERα in vitro activity (receptor activation relative to 10 nM E2): Table 2, previously published compounds, test compound 10 μM
T1 sequence (P03372 1-595): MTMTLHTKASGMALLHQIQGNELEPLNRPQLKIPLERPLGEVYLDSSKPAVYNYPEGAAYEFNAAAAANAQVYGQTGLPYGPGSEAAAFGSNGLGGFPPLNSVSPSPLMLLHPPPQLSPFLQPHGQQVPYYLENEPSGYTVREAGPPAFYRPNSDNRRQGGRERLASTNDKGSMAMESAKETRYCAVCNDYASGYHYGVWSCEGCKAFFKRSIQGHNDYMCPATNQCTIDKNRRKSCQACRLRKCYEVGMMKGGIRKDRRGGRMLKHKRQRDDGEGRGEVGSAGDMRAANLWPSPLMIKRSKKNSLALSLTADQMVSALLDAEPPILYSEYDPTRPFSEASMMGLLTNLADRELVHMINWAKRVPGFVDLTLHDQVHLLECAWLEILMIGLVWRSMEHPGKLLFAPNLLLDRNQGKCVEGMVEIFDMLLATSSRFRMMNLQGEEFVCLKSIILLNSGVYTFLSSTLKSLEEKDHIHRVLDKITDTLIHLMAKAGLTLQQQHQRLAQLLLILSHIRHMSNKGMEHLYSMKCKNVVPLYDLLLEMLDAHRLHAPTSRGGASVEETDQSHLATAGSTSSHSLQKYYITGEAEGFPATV
Method: as §1

[1] = read-out: ERβ receptor activation relative to 10 nM E2 corresponding 100, Table 1, sample concentration 10 μM, mean of at least three independent transfections, SEM typically <15%
[2] = read-out: ERβ in vitro activity (receptor activation relative to 10 nM E2), Table 2, previously published compounds, test compound 10 μM

Row | Structure (SMILES) | Emax at 10 µM (ERβ; [1]) | ERα receptor activation relative to 10 nM E2 corresponding 100 (ERα) | other results
1 | O=C(CCc1ccccc1)CC(O)Cc1ccccc1 (stereo not drawn) [Compound 58ab, 5-Hydroxy-1,6-diphenyl-hexan-3-one] |  |  | Emax at 10 µM (ERβ; [2]): 0.4%; ERα in vitro activity (receptor activation relative to 10 nM E2) (ERα): 12.8%
2 | O=C(CC(O)Cc1ccccc1)c1ccccc1 (stereo not drawn) [Compound 53ab, 3-Hydroxy-1,4-diphenyl-butan-1-one] |  |  | Emax at 10 µM (ERβ; [2]): 16.9%; ERα in vitro activity (receptor activation relative to 10 nM E2) (ERα): 5.3%
3 | COc1ccccc1CC(=O)CC(O)CCc1cccc(F)c1 (single isomer, unassigned) [Compound 22a, 6-(3-Fluorophenyl)-4-hydroxy-1-(2-methoxyphenyl)-2-hexanone] |  | 8.4% | ERβ receptor activation relative to 10 nM E2 corresponding 100 (ERβ): 3.4%
4 | COc1ccc(C(=O)CC(O)Cc2ccc(OCCN(C)C)cc2)cc1 (stereo not drawn) [Compound 12ab, 4-[4-(2-Dimethylamino-ethoxy)phenyl]-3-hydroxy-1-(4-methoxy-phenyl)-butan-1-one] | -8.7% | 0% | 
5 | COC(CC(=O)CCc1ccccc1)Cc1ccc(F)cc1 (stereo not drawn) [Compound 48ab, 5-Methoxy-6-(4-fluorophenyl)-1-phenyl-hexan-3-one] | 11.2% | 33.1% | 
6 | O=C(CCCc1ccc(O)cc1)CC(O)Cc1ccc(O)cc1 (single isomer, unassigned) [Compound 42b, 2-Hydroxy-1,7-di-(4-hydroxy-phenyl)-heptan-4-one] |  | 2.8% | ERβ receptor activation relative to 10 nM E2 corresponding 100 (ERβ): −1.6%
7 | COc1ccc(CC(CC(=O)CCc2ccccc2)OC)cc1 (stereo not drawn) [Compound 47ab, 5-Methoxy-6-(4-methoxyphenyl)-1-phenyl-hexan-3-one] | 4% | 28.5% | 
8 | O=C(CCc1ccc(O)cc1)CC(O)Cc1ccc(F)cc1 (stereo not drawn) [Compound 33ab, 6-(4-Fluoro-phenyl)-5-hydroxy-1-(4-hydroxy-phenyl)-hexan-3-one] | 21.2% | 28.6% | 
9 | COC(CC(=O)CCc1ccccc1)Cc1cccc2ccccc12 (stereo not drawn) [Compound 49ab, 5-Methoxy-6-naphthalen-1-yl-1-phenyl-hexan-3-one] | 2% | 35.5% | 
10 | O=C(CC(O)CCc1ccccc1)c1ccccc1 (single isomer, unassigned) [Compound 54a, 3-Hydroxy-1,5-diphenyl-pentan-1-one] |  |  | ERβ in vitro activity (receptor activation relative to 10 nM E2) (ERβ): 1.1%; ERα in vitro activity (receptor activation relative to 10 nM E2) (ERα): 3.0%
11 | O=C(CCc1ccccc1)CC(O)Cc1cccc2ccccc12 (stereo not drawn) [Compound 27ab, 5-Hydroxy-6-naphthalen-1-yl-1-phenyl-hexan-3-one] | 1.7% | 12.1% | 
12 | O=C(Cc1ccccc1)CC(O)c1ccccc1 (stereo not drawn) [Compound 55ab, 4-Hydroxy-1,4-diphenyl-butan-2-one] |  |  | Emax at 10 µM (ERβ; [2]): 1.6%; ERα in vitro activity (receptor activation relative to 10 nM E2) (ERα): 0.8%
13 | CC(O)(CC(=O)CCCc1ccc(O)cc1)c1ccccc1 (stereo not drawn) [Compound 37ab, 6-Hydroxy-1-(4-hydroxy-phenyl)-6-phenyl-heptan-4-one] | 103% | 90.9% | 
14 | COC(CC(=O)c1ccccc1)Cc1ccccc1 (stereo not drawn) [Compound 61ab, 3-Methoxy-1,4-diphenyl-butan-1-one] |  |  | Emax at 10 µM (ERβ; [2]): 18.4%; ERα in vitro activity (receptor activation relative to 10 nM E2) (ERα): 0.3%
15 | COc1ccccc1CC(=O)CC(O)CCc1cccc(F)c1 (single isomer, unassigned) [Compound 22b, 6-(3-Fluorophenyl)-4-hydroxy-1-(2-methoxyphenyl)-2-hexanone] | 2.9% | 5.6% | 
16 | O=C(CC(O)CCc1ccccc1)c1ccccc1 (single isomer, unassigned) [Compound 54b, 3-Hydroxy-1,5-diphenyl-pentan-1-one] |  |  | ERβ in vitro activity (receptor activation relative to 10 nM E2) (ERβ): 7.3%; ERα in vitro activity (receptor activation relative to 10 nM E2) (ERα): 30.2%
17 | O=C(CCc1ccccc1)CC(O)Cc1ccc(F)cc1 (stereo not drawn) [Compound 26ab, 6-(4-Fluorophenyl)-5-hydroxy-1-phenyl-hexan-3-one] | 3.9% | 35.0% | 
18 | COC(CC(=O)CCCc1ccccc1)Cc1ccccc1 (stereo not drawn) [Compound 51ab, 2-Methoxy-1,7-diphenyl-heptan-4-one] | 30.4% | 24.5% | 
19 | O=C(CCc1ccccc1)CC(O)c1ccccc1 (single isomer, unassigned) [Compound 56b, 1-Hydroxy-1,5-diphenyl-pentan-3-one] |  |  | ERβ in vitro activity (receptor activation relative to 10 nM E2) (ERβ): 2.8%; ERα in vitro activity (receptor activation relative to 10 nM E2) (ERα): 25.3%
20 | O=C(CCc1ccccc1)CC(O)c1ccccc1 (single isomer, unassigned) [Compound 56a, 1-Hydroxy-1,5-diphenyl-pentan-3-one] |  |  | ERβ in vitro activity (receptor activation relative to 10 nM E2) (ERβ): 20.5%; ERα in vitro activity (receptor activation relative to 10 nM E2) (ERα): 78.8%
21 | COC(CCc1ccccc1)CC(=O)Cc1ccccc1 (stereo not drawn) [Compound 44ab, 4-Methoxy-1,6-diphenyl-hexan-2-one] | 0.2% | 12.0% | 
22 | O=C(Cc1ccccc1)CC(O)CCc1ccccc1 (stereo not drawn) [Compound 20ab, 4-Hydroxy-1,6-diphenylhexan-2-one] | 0.2% | 4.3% | 

Continued, in another order:

Row | Emax at 10 µM (ERβ; [1]) | ERα receptor activation relative to 10 nM E2 corresponding 100 (ERα) | Structure (SMILES) | other results
23 | 5.1% | 45.2% | O=C(CCc1ccccc1O)CC(O)Cc1ccccc1 (stereo not drawn) [Compound 30ab, 5-Hydroxy-1-(2-hydroxy-phenyl)-6-phenyl-hexan-3-one] | 
24 | 2.4% | 16.0% | O=C(CCCc1ccccc1)CC(O)Cc1ccc(O)cc1 (stereo not drawn) [Compound 39ab, 2-Hydroxy-1-(4-hydroxy-phenyl)-7-phenyl-heptan-4-one] | 
25 |  | 87.4% | O=C(CCCc1ccc(O)cc1)CC(O)c1cccc(O)c1 (single isomer, unassigned) [Compound 35a, 1-Hydroxy-1-(3-hydroxy-phenyl)-6-(4-hydroxy-phenyl)-hexan-3-one] | ERβ receptor activation relative to 10 nM E2 corresponding 100 (ERβ): 107.8%
26 |  | 49.3% | O=C(CCCc1ccc(O)cc1)CC(O)c1cccc(O)c1 (single isomer, unassigned) [Compound 35b, 1-Hydroxy-1-(3-hydroxy-phenyl)-6-(4-hydroxy-phenyl)-hexan-3-one] | ERβ receptor activation relative to 10 nM E2 corresponding 100 (ERβ): 43.8%
27 |  | 20.1% | O=C(CCc1ccccc1)CC(O)Cc1ccc2ccccc2c1 (single isomer, unassigned) [Compound 28b, 5-Hydroxy-6-naphthalen-2-yl-1-phenyl-hexan-3-one] | ERβ receptor activation relative to 10 nM E2 corresponding 100 (ERβ): 20.1%
28 | 21.1% | 25.1% | O=C(Cc1cccc(F)c1)CC(O)CCc1ccccc1 (stereo not drawn) [Compound 21ab, 1-(3-Fluorophenyl)-4-hydroxy-6-phenyl-hexan-2-one] | 
29 | -0.8% | −0.5% | O=C(CCCc1ccc(O)c(O)c1)CC(O)Cc1ccccc1 (stereo not drawn) [Compound 41ab, 2-Hydroxy-7-(3,4-dihydroxy-phenyl)-1-phenyl-heptan-4-one] | 
30 |  | 1.6% | COc1ccc(CC(O)CC(=O)CCc2ccccc2)cc1 (single isomer, unassigned) [Compound 24a, 5-Hydroxy-6-(4-methoxyphenyl)-1-phenyl-hexan-3-one] | ERβ receptor activation relative to 10 nM E2 corresponding 100 (ERβ): −0.8%
31 | 9.1% | 24.7% | O=C(CCCc1ccccc1)CC(O)Cc1ccccc1 (stereo not drawn) [Compound 38ab, 2-Hydroxy-1,7-diphenyl-heptan-4-one] | 
32 | 7.7% | 12.0% | O=C(Cc1ccccc1)CC(O)c1cccc(O)c1 (stereo not drawn) [Compound 19ab, 4-Hydroxy-4-(3-hydroxyphenyl)-1-phenyl-butan-2-one] | 
33 |  | 1.3% | COc1ccc(CC(O)CC(=O)CCc2ccccc2)cc1 (single isomer, unassigned) [Compound 24b, 5-Hydroxy-6-(4-methoxyphenyl)-1-phenyl-hexan-3-one] | ERβ receptor activation relative to 10 nM E2 corresponding 100 (ERβ): 1.2%
